Reference: ChEMBL document CHEMBL5365509, “Structure-Activity Relationship and Molecular Docking of Quinazolinones Inhibiting Expression of COX-2, IL-1β, iNOS, and TNF-α through NF-κB Pathways” (ACS Med Chem Lett, 2023)
The source made the active and inactive calls. The rule behind the calls is not given here.

What was measured:
RAW264.7 [1] = assay: Anti-inflammatory activity in mouse RAW264.7 assessed as decrease in LPS-induced COX-2 mRNA expression incubated for 16 hrs by RT-PCR analysis; format: functional, cell-based; settings: dose 0.1-62.5 µM
RAW264.7 [2] = assay: Anti-inflammatory activity in mouse RAW264.7 assessed as LPS-induced COX-2 mRNA expression at 62.5 uM incubated for 16 hrs by RT-PCR analysis relative to control; format: functional
RAW264.7 [3] = assay: Anti-inflammatory activity in mouse RAW264.7 assessed as decrease in LPS-induced IL-1beta mRNA expression at 62.5 uM incubated for 16 hrs by RT-PCR analysis; format: functional, cell-based
RAW264.7 [4] = assay: Anti-inflammatory activity in mouse RAW264.7 assessed as LPS-induced TNF-alpha mRNA expression at 62.5 uM incubated for 16 hrs by RT-PCR analysis relative to control; format: functional
in vitro = settings: mouse
Description: Cytotoxicity against mouse RAW264.7 cells assessed as cell viability at 6.25 uM by MTT assay relative to control

RAW264.7 [5] = assay: Anti-inflammatory activity in mouse RAW264.7 assessed as LPS-induced IL-1beta mRNA expression at 62.5 uM incubated for 16 hrs by RT-PCR analysis relative to control; format: functional
RAW264.7 [6] = assay: Anti-inflammatory activity in mouse RAW264.7 assessed as decrease in LPS-induced IL-1beta mRNA expression incubated for 16 hrs by RT-PCR analysis; format: functional, cell-based; settings: dose 0.1-62.5 µM
RAW264.7 [7] = assay: Anti-inflammatory activity in mouse RAW264.7 assessed as decrease in LPS-induced COX-2 mRNA expression at 62.5 uM incubated for 16 hrs by RT-PCR analysis relative to control; format: functional; set-up: scale not given: the % may be the effect or the level left
RAW264.7 [8] = assay: Anti-inflammatory activity in mouse RAW264.7 assessed as decrease in LPS-induced iNOS mRNA expression at 62.5 uM incubated for 16 hrs by RT-PCR analysis relative to control; format: functional; set-up: scale not given: the % may be the effect or the level left
RAW264.7 [9] = assay: Anti-inflammatory activity in mouse RAW264.7 assessed as LPS-induced iNOS mRNA expression at 62.5 uM incubated for 16 hrs by RT-PCR analysis relative to control; format: functional
RAW264.7 [10] = assay: Anti-inflammatory activity in mouse RAW264.7 assessed as decrease in LPS-induced COX-2 mRNA expression at 62.5 uM incubated for 16 hrs by RT-PCR analysis; format: functional, cell-based
RAW264.7 [11] = assay: Anti-inflammatory activity in mouse RAW264.7 assessed as decrease in LPS-induced IL-1beta mRNA expression at 62.5 uM incubated for 16 hrs by RT-PCR analysis relative to control; format: functional; set-up: scale not given: the % may be the effect or the level left
RAW264.7 [12] = assay: Anti-inflammatory activity in mouse RAW264.7 assessed as decrease in LPS-induced TNF-alpha mRNA expression at 62.5 uM incubated for 16 hrs by RT-PCR analysis relative to control; format: functional; set-up: scale not given: the % may be the effect or the level left
RAW264.7 [13] = assay: Cytotoxicity against mouse RAW264.7 cells assessed as cell viability at 6.25 uM by MTT assay; format: toxicity, cell-based; settings: raw264.7, 6.25 µM

CCCCCCCCc1nc2ccccc2c(=O)[nH]1
Activity (RAW264.7 [1]): Dose-Dependent Effect
Activity (RAW264.7 [2]): 11.14%
Activity (RAW264.7 [3]): Active
Activity (RAW264.7 [4]): 44%
viability at 6.25 µM (in vitro; RAW264.7 cells): > 80%
Activity (RAW264.7 [5]): 6.92%
Activity (RAW264.7 [6]): Dose-Dependent Effect

O=c1c2ccccc2ncn1-c1ccccc1
Activity (RAW264.7 [7]): 28.46%
viability at 6.25 µM (in vitro; RAW264.7 cells): > 80%
Activity (RAW264.7 [8]): <22%

O=c1[nH]c(-c2cccc(C(F)(F)F)c2)nc2ccccc12
Activity (RAW264.7 [9]): 13.98%
viability at 6.25 µM (in vitro; RAW264.7 cells): > 80%
Activity (RAW264.7 [5]): <35%
Activity (RAW264.7 [10]): inactive

O=c1[nH]cnc2ccccc12 [QUINAZOLINONE]
viability at 6.25 µM (in vitro; raw264.7): > 80%

Oc1nc(C2CCCCC2)nc2ccccc12
Activity (RAW264.7 [11]): 75.72%
Activity (RAW264.7 [1]): Dose-Dependent Effect
Activity (RAW264.7 [2]): >80%
Activity (RAW264.7 [4]): 44%
viability at 6.25 µM (in vitro; RAW264.7 cells): > 80%
Activity (RAW264.7 [6]): Dose-Dependent Effect

CCC(C)c1nc2ccccc2c(=O)[nH]1 (configuration not stated)
Activity (RAW264.7 [2]): 0.5%
Activity (RAW264.7 [3]): Active
Activity (RAW264.7 [4]): 44%
viability at 6.25 µM (in vitro; RAW264.7 cells): > 80%
Activity (RAW264.7 [5]): 4.02%

CC(c1ccccc1)n1cnc2ccccc2c1=O (configuration not stated)
viability at 6.25 µM (in vitro; RAW264.7 cells): > 80%
Activity (RAW264.7 [10]): Active
Activity (RAW264.7 [8]): <22%

O=c1[nH]cnc2ccc(F)cc12
Activity (RAW264.7 [11]): 10.85%
viability at 6.25 µM (in vitro; RAW264.7 cells): > 80%
Activity (RAW264.7 [12]): <50%

Cc1nc2ccccc2c(=O)[nH]1
Activity (RAW264.7 [2]): 60.96%
viability at 6.25 µM (in vitro; RAW264.7 cells): > 80%
Activity (RAW264.7 [5]): 58.79%

COc1ccc(-c2nc(O)c3ccccc3n2)cc1
Activity (RAW264.7 [5]): <35%
Activity (RAW264.7 [10]): inactive

Oc1ncnc2cc(Cl)ccc12
Activity (RAW264.7 [11]): 10.85%
viability at 6.25 µM (in vitro; RAW264.7 cells): > 80%
Activity (RAW264.7 [12]): <50%

CCCCCCc1nc2ccccc2c(=O)[nH]1
Activity (RAW264.7 [7]): 95%
viability at 6.25 µM (in vitro; RAW264.7 cells): > 80%
Activity (RAW264.7 [5]): 3.1%

Cn1cnc2ccccc2c1=O
Activity (RAW264.7 [7]): 28.85%
viability at 6.25 µM (in vitro; RAW264.7 cells): > 80%
Activity (RAW264.7 [8]): <22%

O=c1[nH]cnc2cc(F)ccc12
Activity (RAW264.7 [11]): 10.85%
viability at 6.25 µM (in vitro; RAW264.7 cells): > 80%
Activity (RAW264.7 [12]): <50%

O=c1[nH]cnc2ncccc12
Activity (RAW264.7 [3]): inactive
Activity (RAW264.7 [9]): 62.82%
viability at 6.25 µM (in vitro; RAW264.7 cells): > 80%
Activity (RAW264.7 [10]): inactive

CC(C)c1nc2ccccc2c(=O)[nH]1
Activity (RAW264.7 [2]): 20.47%
Activity (RAW264.7 [3]): Active
viability at 6.25 µM (in vitro; RAW264.7 cells): > 80%
Activity (RAW264.7 [5]): 14.02%

Cc1cccc(-c2nc(O)c3ccccc3n2)c1
Activity (RAW264.7 [2]): 3.79%
viability at 6.25 µM (in vitro; RAW264.7 cells): > 80%
Activity (RAW264.7 [5]): <35%

COc1ccc(-c2nc3ccccc3c(=O)[nH]2)cc1
viability at 6.25 µM (in vitro; RAW264.7 cells): > 80%

O=c1[nH]c(/C=C/c2ccccc2)nc2ccccc12
Activity (RAW264.7 [13]): Toxic
